Assay results from PMC7159882, “Polyunsaturated fatty acid analogues differentially affect cardiac NaV, CaV, and KV channels through unique mechanisms” (eLife, 2020).

Target: T1, Kv7.1/KCNE1 (Homo sapiens, UniProt P51787)
T1 construct: cRNA encoding Kv7.1 (UniProt: P51787), KCNE1 (UniProt: P15382.1); expressed in transfected cells; host or cells: Xenopus laevis oocytes (cRNA injection, Kv7.1:KCNE1 3:1 by weight)
Assay: Two-electrode voltage clamp of Kv7.1/KCNE1 expressed in Xenopus oocytes
Format: cell-based
Set-up: Fitted slope factor of conductance vs voltage relationship: unit of the concentration uncertain
Conditions: for IKs I/I0: relative current at 0 mV
Experimental: Molecular Biology cRNA encoding Kv7.1 (UniProt: P51787), KCNE1 (UniProt: P15382.1), Nav1.5 (UniProt: Q14524.1), Nav β1 (UniProt: […]), Nav β3 (UniProt: […]), Cav1.2 (GenBank: CAA84346), Cav β3 (Uniprot: P54286), Cav β2 (Uniprot: P54288), and Cav α2δ (Uniprot: P13806) were transcribed using the mMessage mMachine T7 kit (Ambion). 50 ng of cRNA was injected into defolliculated Xenopus laevis oocytes (Ecocyte, Austin, TX): For Kv7.1/KCNE1 channel expression, we injected a 3:1, weight:weight (Kv7.1:KCNE1) cRNA ratio. For Nav1.5 channel expression, we injected a 2:1, weight:weight (Nav1.5:β1) cRNA ratio. For Cav1.2 channel expression, we injected a 2:1:1, weight:weight (Cav1.2:β3:α2δ) cRNA ratio. The exact stoichiometry for channel macromolecular complexes, including α -subunits and auxiliary subunits is not clear for many ion channels. For example, there have been multiple reported stoichiometries for Kv7.1:KCNE1 determined in heterologous expression systems with some groups reporting flexible stoichiometry of 4 Kv7.1: 1–4 KCNE1 and others reporting a fixed stoichiometry of 4 Kv7.1: 2 KCNE1 ([Murray et al., 2016]; [Nakajo et al., 2010]). The ratios of cRNA of α- and auxiliary subunits that we injected in Xenopus laevis oocytes are such that all α-subunits are assumed to be in complex with auxiliary subunits. This allows a more homogenous population of ion channels with auxiliary subunits. One caveat to expressing ion channels as macromolecular complexes is that there are many other auxiliary subunits that could associate with the channel α -subunit that are present in cardiomyocytes and have the potential to alter PUFA-induced effects, but that are not being co-expressed in our experiments. In this work, we are co-expressing some of the auxiliary subunits that have been primarily reported to associate with their respective α -subunits in cardiomyocytes. Following cRNA injection, cells were incubated for 72–96 hr in standard ND96 solution (96 mM NaCl, 2 mM KCl, 1 mM MgCl2, 1.8 mM CaCl2, 5 mM HEPES; pH = 7.5) containing 1 mM pyruvate at 16°C prior to electrophysiological recordings.
Xenopus laevis oocytes were recorded in the two-electrode voltage clamp (TEVC) configuration. Recording pipettes were filled with 3 M KCl. The recording chamber was filled with ND96 (96 mM NaCl, 2 mM KCl, 1 mM MgCl2, 1.8 mM CaCl2, 5 mM HEPES; pH 7.5). For Cav1.2/β3/α2δ channel recordings, Xenopus oocytes were injected with 50 nl of 100 mM EGTA and incubated at 10°C for 30 min prior to electrophysiological recordings in order to sequester cytosolic calcium. In addition, Cav1.2/β3/α2δ channel recordings were done in Ca^2+-free solutions, using Ba^2+ as the charge carrier, to prevent calcium-dependent inactivation of Cav1.2/β3/α2δ channels. Calcium-dependent inactivation was not studied in this work, due to the presence of large calcium-activated chloride currents present in Xenopus laevis oocytes. PUFAs were obtained from Cayman Chemical (Ann Arbor, MI.) or synthesized in house (Linköping, Sweden) through methods previously described ([Bohannon et al., 2020]) and kept at −20 °C as 100 mM stock solutions in ethanol. […] PUFAs were perfused into the recording chamber using the Rainin Dynamax Peristaltic Pump (Model RP-1) (Rainin Instrument Co., Oakland, CA. USA).
Electrophysiological recordings were obtained using Clampex 10.3 software (Axon, pClamp, Molecular Devices). To measure Kv7.1/KCNE1 currents we apply PUFAs as the membrane potential is stepped every 30 s from −80 mV to 0 mV for 5 s before stepping to −40 mV and back to −80 mV to ensure that the PUFA effects on the current at 0 mV reached steady state. A voltage-step protocol was used to measure the current vs. voltage (I-V) relationship before PUFA application and after the PUFA effects had reached steady state for each concentration of PUFA. Cells were held at −80 mV followed by a hyperpolarizing prepulse to −140 mV. […]

Compound	Fitted slope factor of conductance vs voltage relationship (0.2 μM) [mV]	Gmax/Gmax0 (0.2 μM)	ΔV0.5 (voltage dependence of activation) (0.2 μM) [mV]	IKs I/I0 (0.2 μM)	Fitted slope factor of conductance vs voltage relationship (0.7 μM) [mV]	Gmax/Gmax0 (0.7 μM)	ΔV0.5 (voltage dependence of activation) (0.7 μM) [mV]	IKs I/I0 (0.7 μM)	Fitted slope factor of conductance vs voltage relationship (2 μM) [mV]	Gmax/Gmax0 (2 μM)	ΔV0.5 (voltage dependence of activation) (2 μM) [mV]	IKs I/I0 (2 μM)	Fitted slope factor of conductance vs voltage relationship (7 μM) [mV]	Gmax/Gmax0 (7 μM)	ΔV0.5 (voltage dependence of activation) (7 μM)	Fitted slope factor of conductance vs voltage relationship (20 μM) [mV]	Gmax/Gmax0 (20 μM)	ΔV0.5 (voltage dependence of activation) (20 μM) [mV]	IKs I/I0 (20 μM)	IKs I/I0 (7 μM)	further results
CC/C=C\C/C=C\C/C=C\C/C=C\C/C=C\C/C=C\CCC(=O)NCC(=O)O [DHA-glycine, docosahexaenoyl glycine]	16.5 ± 0.49	1.3 ± 0.1	-2.0 ± 0.8	1.3 ± 0.1	16.6 ± 0.45	1.5 ± 0.1	-3.0 ± 1.0	1.7 ± 0.2	16.6 ± 0.52	1.7 ± 0.2	-5.8 ± 0.9	2.4 ± 0.5	17.0 ± 0.56	1.9 ± 0.2	−10.5 ± 1.0 mV	17.9 ± 0.68	2.0 ± 0.2	-16.5 ± 1.3	5.0 ± 1.3		
CCCCC/C=C\C/C=C\CCCCCCCC(=O)NCCS(=O)(=O)O [Lin-taurine, Linoleoyl taurine]	17.7 ± 0.76	1.0 ± 0.03	1.3 ± 0.7	1.0 ± 0.1	17.7 ± 0.77	1.1 ± 0.02	-0.3 ± 1.4	1.2 ± 0.2	18.6 ± 1.0	1.7 ± 0.4	-12.3 ± 3.1	3.2 ± 0.9	18.1 ± 1.0	1.9 ± 0.6	−39.9 ± 3.6 mV	12.2 ± 1.8	2.0 ± 0.6	-73.1 ± 2.6	10.4 ± 4.0	7.7 ± 2.9 (p=0.14)	ΔV0.5 (voltage dependence of activation) (7 μM, listed as lin-taurine): -39.9 ± 3.6 mV; IKs I/I0 (7 μM, listed as lin-taurine): 7.7 ± 2.9
CCCCC/C=C\C/C=C\CC/C=C\CCCC(=O)NCCS(=O)(=O)O [Pin-taurine]	17.9 ± 0.82	1.2 ± 0.1	2.6 ± 2.4	1.1 ± 0.1	17.7 ± 0.82	1.3 ± 0.2	2.3 ± 3.5	1.4 ± 0.4	18.3 ± 0.96	2.0 ± 0.4	-4.9 ± 3.4	3.0 ± 0.4	18.8 ± 1.0		−23.8 ± 2.7 mV	16.8 ± 0.73	1.9 ± 0.3	-51.6 ± 3.5	9.0 ± 1.4	6.8 ± 1.0 (p=0.01)	Gmax/Gmax0 (7 μM, listed as pin-taurine): 2.2 ± 0.4; ΔV0.5 (voltage dependence of activation) (7 μM, listed as pin-taurine): -23.8 ± 2.7 mV; IKs I/I0 (7 μM, listed as pin-taurine): 6.8 ± 1.0
CCCCC/C=C\C/C=C\CCCCCCCC(=O)NCC(=O)O [Lin-glycine]	18.2 ± 0.89	1.2 ± 0.1	-2.7 ± 1.5	1.2± 0.1	19.0 ± 1.0	1.3 ± 0.1	-3.3 ± 3.0	1.4 ± 0.1	19.2 ± 1.2	1.8 ± 0.2	-10.0 ± 2.8	2.5 ± 0.4	20.6 ± 1.5	2.3 ± 0.2	−23.8 ± 1.6 mV	22.1 ± 1.7	2.4 ± 0.2	-26.4 ± 4.4	5.3 ± 0.5	5.1 ± 0.4 (p=0.002)	ΔV0.5 (voltage dependence of activation) (7 μM, listed as lin-glycine): -23.8 ± 1.6 mV; IKs I/I0 (7 μM, listed as lin-glycine): 5.1 ± 0.4
CCCCC/C=C\C/C=C\CC/C=C\CCCC(=O)NCC(=O)O [Pin-glycine]	17.9 ± 0.83	1.0 ± 0.1	3.9 ± 0.6	0.7 ± 0.1	17.8 ± 0.84	1.2 ± 0.1	2.3 ± 0.2	1.0 ± 0.1	17.9 ± 0.91	1.3 ± 0.1	2.3 ± 0.7	1.1 ± 0.1	18.7 ± 1.1	1.7 ± 0.1		20.9 ± 1.4	1.7 ± 0.1	-19.9 ± 2.4	3.6 ± 0.2		ΔV0.5 (voltage dependence of activation) (7 μM, listed as pin-glycine): -8.5 ± 1.7 mV; IKs I/I0 (7 μM, listed as pin-glycine): 2.4 ± 0.2
CCCCC/C=C\C/C=C\C/C=C\C/C=C\CCCC(=O)NCCS(=O)(=O)O [N-AT, N-arachidonoyl taurine]	16.9 ± 0.65	1.0 ± 0.1	0.7 ± 0.8	1.0 ± 0.02	17.2 ± 0.62	0.9 ± 0.02	0.9 ± 1.1	1.0 ± 0.03	17.4 ± 0.60	0.9 ± 0.02	0.6 ± 1.1	1.0 ± 0.04	18.2 ± 0.59	0.9 ± 0.03	–1.8 ± 2.6 mV	18.7 ± 0.73	0.9 ± 0.02	-8.5 ± 4.9	1.3 ± 0.2		concentrations at which the effects on IKs appear (I/I0 at 0 mV): > 20 µM
